PubChem BioAssay AID1745844 (Carcinogenic Potency Database (CPDB), 2022)
Calls of active or inactive are those of the source. The rule behind the calls is not given here.

Test system: rodent lifetime carcinogenesis bioassay, tumor incidence TD50
Assay: chronic cancer bioassays in animals – CPDB, compiled studies (AID 1745844)
Conditions: in feed

| SMILES | TD50 (rat, strain F344/DuCrj, females, site: forestomach, lesion: squamous-cell carcinoma, dosed 104 weeks, study length 104 weeks) [mg/kg/day] | TD50 (rat, strain F344/DuCrj, females, site: forestomach, lesion: squamous-cell papilloma, dosed 104 weeks, study length 104 weeks) [mg/kg/day] | TD50 (rat, strain F344/DuCrj, females, site: stomach, glandular, lesion: adenocarcinoma, dosed 104 weeks, study length 104 weeks) [mg/kg/day] | carcinogen call (rat, strain F344/DuCrj, females, site: stomach, glandular, lesion: adenoma, dosed 104 weeks, study length 104 weeks) | TD50 (rat, strain F344/DuCrj, females, site: stomach, glandular, lesion: sarcoma, dosed 104 weeks, study length 104 weeks) [mg/kg/day] | TD50 (rat, strain F344/DuCrj, males, site: forestomach, lesion: squamous-cell carcinoma, dosed 104 weeks, study length 104 weeks) [mg/kg/day] | TD50 (rat, strain F344/DuCrj, males, site: forestomach, lesion: squamous-cell papilloma, dosed 104 weeks, study length 104 weeks) [mg/kg/day] | TD50 (rat, strain F344/DuCrj, males, site: stomach, glandular, lesion: adenocarcinoma, dosed 104 weeks, study length 104 weeks) [mg/kg/day] | carcinogen call (rat, strain F344/DuCrj, males, site: stomach, glandular, lesion: adenoma, dosed 104 weeks, study length 104 weeks) | TD50 (rat, strain F344/DuCrj, males, site: stomach, glandular, lesion: sarcoma, dosed 104 weeks, study length 104 weeks) [mg/kg/day] | carcinogen call (mouse, strain B6C3F1, females, site: any site (literature study), lesion: several types, types named in the paper, dosed 103 weeks, study length 104 weeks) | TD50 (mouse, strain B6C3F1, females, site: liver, lesion: hepatocellular adenoma + hepatocellular carcinoma + neoplastic nodule, dosed 103 weeks, study length 104 weeks) [mg/kg/day] | carcinogen call (mouse, strain B6C3F1, males, site: any site (literature study), lesion: several types, types named in the paper, dosed 103 weeks, study length 104 weeks) | TD50 (rat, strain F344/DuCrj, males, site: thyroid gland, lesion: follicular-cell carcinoma, dosed 52 weeks, study length 52 weeks) [mg/kg/day] | TD50 (rat, strain Fischer 344, females, site: any site (literature study), lesion: several types, types named in the paper, dosed 104 weeks, study length 104 weeks) [mg/kg/day] | TD50 (rat, strain Fischer 344, females, site: thyroid gland, lesion: follicular-cell adenoma + follicular-cell carcinoma, dosed 104 weeks, study length 104 weeks) [mg/kg/day] | TD50 (rat, strain Fischer 344, females, site: thyroid gland, lesion: follicular-cell carcinoma, dosed 104 weeks, study length 104 weeks) [mg/kg/day] | TD50 (rat, strain Fischer 344, males, site: any site (literature study), lesion: several types, types named in the paper, dosed 103 weeks, study length 104 weeks) [mg/kg/day] | TD50 (rat, strain Fischer 344, males, site: thyroid gland, lesion: follicular-cell adenoma + follicular-cell carcinoma, dosed 103 weeks, study length 104 weeks) [mg/kg/day] | TD50 (rat, strain Fischer 344, males, site: thyroid gland, lesion: follicular-cell carcinoma, dosed 103 weeks, study length 104 weeks) [mg/kg/day] |
| --- | --- | --- | --- | --- | --- | --- | --- | --- | --- | --- | --- | --- | --- | --- | --- | --- | --- | --- | --- | --- |
| Cc1ccc(O)c(O)c1 | 1500 | 253 | 1090 | positive | 6500 | 719 | 468 | 656 | positive | 3830 |  |  |  |  |  |  |  |  |  |  |
| CCNC(=S)NCC |  |  |  |  |  |  |  |  |  |  | negative (inactive) | 687 | negative (inactive) | 28.1 | 21.5 | 23.8 | 57.9 | 12.9 | 24.3 | 33.6 |
